{"source": "patent US20150362491A1", "about": "“METHODS AND ASSAYS RELATING TO RNF216” (THE GENERAL HOSPITAL CORPORATION, priority 2013, published 2015)", "key": {"[1]": {"system": "rnf216 and rnf216+otud4 (DMO) morphants", "experiment": "in vivo zebrafish assay of neuronal survival and degeneration, SFN co-injected into morphants", "settings": "for morphants with optic tectum defects: 3 dpf", "description": "Zebrafish embryo injections. Zebrafish were maintained and mated according to standard procedures.^49 Wild-type zebrafish embryos were injected at the 1-4 cell stage with 1 nl diluted MO and 0.5% phenol red. […] For the epistatic interaction experiments, a cocktail containing 6 ng each of rnf216- and otud4-targeting MO was used.\n(§1) Zebrafish embryo phenotyping. Injected embryos were scored at 3 days post fertilization for microphthalmia by measuring the area of the eye cup. For immunofluorescence studies, embryos were fixed in Dent's fixative (80% methanol, 20% dimethylsulfoxide) overnight at 4° C. After rehydration with decreasing series of methanol in PBS, the embryos were washed with PBS, permeabilized with 10 μg/ml proteinase K, and postfixed with 4% PFA. Embryos were then washed twice with IF buffer (0.1% Tween-20, 1% BSA in 1×PBS) for 10 min at room temperature. After incubation in blocking solution (10% FBS, 1% BSA in 1×PBS) for 1 h at room temperature, embryos were incubated with anti-α acetylated tubulin (1:1000; T7451, Sigma-Aldrich), overnight at 4° C. After two washes in IF buffer for 10 min, embryos were incubated with Alexa Fluor goat anti-mouse IgG (1:1000; A21207, A11001, Invitrogen) for 1 h at room temperature. Image acquisition and analysis was performed using Nikon NIS-Elements Advanced Research software. For each test, 50-100 embryos were injected and scored by two investigators who were blind to the injection cocktail. All experiments were performed 2-3 times and statistical significance was calculated using Student's t-test.\nThis hypothesis will be tested in Rnf216^−/− and Otud4^−/− mice."}, "[2]": {"system": "pituitary response to GnRH", "settings": "Subject 3, cited from earlier work"}, "[3]": {"system": "pituitary response to GnRH", "experiment": "reproductive endocrine phenotyping with exogenous GnRH", "format": "in vivo, human", "description": "Reproductive Endocrine Phenotyping. Subjects 2, 6, and 8 underwent blood sampling every 10-15 minutes for 3.25-12 h to examine the frequency, amplitude, and morphology of endogenous GnRH-induced luteinizing hormone (LH) pulse patterns. Pulses of LH secretion were identified using a modified version of the method of Santen and Bardin.^45-46 Subjects 1, 2, 6, and 8 received exogenous, pulsatile GnRH with monitoring of gonadotropin responses as described previously.^47-48 Hormone assays were performed as described in ref 48; the Second International Reference Preparation was used as the standard for LH and FSH."}, "zebrafish embryos": {"system": "zebrafish embryos", "experiment": "zebrafish embryo morpholino knock-down and human mRNA rescue phenotyping", "format": "in vivo", "settings": "for organization of the cerebellum (axonal tracts) / size of the optic tectum: 3 d.p.f., anti-α acetylated tubulin staining", "description": "Zebrafish Investigation. All experiments were carried out with the approval of the Institutional Animal Care and Use Committee. Morpholino oligos (MO) for silencing of zebrafish rnf216 and otud4 were injected either alone or with wild-type (WT) or mutant human mRNA for RNF216, OTUD4, or both.\nMorpholino oligonucleotide design. Morpholino oligos were obtained from Gene Tools, LLC (Philomath, Oreg., USA). Reciprocal BLAST against the zebrafish genome identified a sole zebrafish ortholog of […] (ENSDARG00000087893, 59% similarity, 46% identity). The antisense MO used for the silencing of zebrafish rnf216 targeted the intron 5′ donor splice site of the gene: […] (SEQ ID NO: 7).\n(§2) Similar to rnf216, a sole ortholog of the human transcript for OTUD4 was identified in zebrafish (73% similarity, 61% identity). […] The MO for otud4 targeted the donor splice site of intron 2: […] (SEQ ID NO: 8).\nZebrafish embryo injections. Zebrafish were maintained and mated according to standard procedures.^49 Wild-type zebrafish embryos were injected at the 1-4 cell stage with 1 nl diluted MO and 0.5% phenol red. A dose of 6 ng of rnf216 or otud4-targeting MO was used as it gave the best rate of silencing and the minimum rate of mortality among the tested working dilutions (4-10 ng). For the epistatic interaction experiments, a cocktail containing 6 ng each of rnf216- and otud4-targeting MO was used.\nFor RNA rescue experiments, human wild-type or mutant RNF216 (NM_207116.2) and OTUD4 (NM_001102653.1) were cloned into the pCS2+ expression vector and transcribed in vitro using the SP6 Message Machine Kit (Ambion) to produce capped mRNA, and 200 pg of mRNA was injected for the rescue experiments.\nas §1"}, "[4]": {"system": "otud4 endogenous transcript", "experiment": "efficiency of the morpholinos (splicing of endogenous transcript, gel)", "format": "in vivo, zebrafish", "settings": "otud4 MO 4-10 ng; intron 5 retained", "description": "FIG. 8B depicts a gel of the results of injection of the otud4 MO (4-10 ng), which reduces normal splicing of the endogenous transcript by 90% and favors aberrant splicing resulting in a transcript where intron 5 (73 bp in size) is retained.\nas §2"}, "[5]": {"settings": "treatment of rnf216 and DMO morphants with SFN"}}}
{"molecule": "C[S@@+]([O-])CCCCN=C=S", "note": "[SFN, 1-isothio-cyanato-4(R)-methylsulfinylbutane]", "values": [{"measurement": "morphants with optic tectum defects", "setting": "[1]; DMO (rnf216+otud4) morphants co-injected with SFN, from 41% without SFN, p<0.001", "value": 15, "unit": "%"}, {"measurement": "cerebellar disorganization phenotype", "setting": "[1]; co-injection of SFN with DMO", "value": "failed to ameliorate"}, {"measurement": "cerebellar disorganization phenotype", "setting": "[1]; co-injection of SFN with rnf216 MO", "value": "failed to ameliorate"}, {"measurement": "morphants with optic tectum defects", "setting": "[1]; rnf216 morphants co-injected with SFN, from 32% without SFN, p<0.001", "value": 15, "unit": "%"}, {"measurement": "cerebellar degeneration phenotype (FIG. 10E)", "setting": "[1]; [5]", "value": "not the cerebellar degeneration phenotype"}, {"measurement": "optic tectum phenotype (FIG. 10D)", "setting": "[1]; [5]", "value": "rescues the optic tectum phenotype"}]}
{"molecule": "gonadotropin-releasing hormone (QHWSYGLRPG; Gonadoliberin-1; UniProt P01148 24-33, looked up) [GnRH]", "values": [{"measurement": "LH after GnRH", "setting": "[2]; 90 min after GnRH, baseline 0.06 IU/L", "value": 5.8, "unit": "IU/L"}, {"measurement": "FSH after GnRH", "setting": "[2]; 120 min, baseline 0.14 IU/L", "value": 2.0, "unit": "IU/L"}, {"measurement": "LH response to exogenous GnRH at a standard dose", "setting": "[3]; Subject 6", "value": "immediate robust increase in LH"}, {"measurement": "testicular volumes", "setting": "[3]; Subject 8, exogenous pulsatile GnRH 25 to 600 ng/kg q2 h over 2 y, from 2 mL", "value": 8, "unit": "mL"}, {"measurement": "gonadotropin responses to pulsatile exogenous GnRH over 7 days", "setting": "[3]; Subjects 1 and 2, bedridden, late in the course of disease", "value": "failed to exhibit gonadotropin responses"}]}
{"molecule": "human RNF216 mRNA: capped wild-type human RNF216 (NM—207116.2) mRNA transcribed in vitro, 200 pg injected", "values": [{"measurement": "rescue of the phenotypes induced by double MO injection", "setting": "zebrafish embryos; co-injection of mRNA with double MO", "value": "rescued all phenotypes"}, {"measurement": "rescue of the tectal phenotype", "setting": "zebrafish embryos; co-injection of mRNA with rnf216 MO", "value": "fully rescued"}]}
{"molecule": "otud4 MO: splice-blocking morpholino against zebrafish otud4: TACCCGAAGGAATTTGCGCACCATT (SEQ ID NO: 8) (all phosphorodiamidate morpholino (PMO))", "values": [{"measurement": "reduction of normal splicing of the endogenous transcript", "setting": "[4]", "value": 90, "unit": "%"}, {"measurement": "organization of the cerebellum (axonal tracts)", "setting": "zebrafish embryos", "value": "cerebellar defects"}, {"measurement": "size of the optic tectum", "setting": "zebrafish embryos", "value": "reduction in size of the optic tectum"}]}
{"molecule": "rnf216 MO: antisense morpholino silencing zebrafish rnf216, donor splice site: CAGAAAATAGTTTGTGCTTACACAT (SEQ ID NO: 7) (all phosphorodiamidate morpholino (PMO))", "values": [{"measurement": "morphants with optic tectum defects", "setting": "[1]; morphants without SFN", "value": 32, "unit": "%"}, {"measurement": "organization of the cerebellum (axonal tracts)", "setting": "zebrafish embryos", "value": "disorganization of axonal tracts in the cerebellum"}, {"measurement": "size of the optic tectum", "setting": "zebrafish embryos", "value": "reduction in size of the optic tectum"}]}
